Values of other authors, collected in patent publication US20020058290A1, “Cell lines and cell-based assays for identification of androgen receptor modulators” (priority 2000, published 2002).

Test system: MAP kinases Erk-1 and Erk-2
Conditions: AR-transfected PC3 cells; AR dependent, similar to DHT

Structure (SMILES) | activation of MAP kinases Erk-1 and Erk-2
CC(O)(CS(=O)(=O)c1ccc(F)cc1)C(=O)Nc1ccc(C#N)c(C(F)(F)F)c1 (centres unmarked) [Casodex] | activate MAP kinases Erk-1 and Erk-2 in an AR dependent fashion
CC(C)(O)C(=O)Nc1ccc([N+](=O)[O-])c(C(F)(F)F)c1 [Hydroxyflutamide] | activate MAP kinases Erk-1 and Erk-2 in an AR dependent fashion
